According to patent US20250270213A1, “PI3Ka INHIBITORS” (Synnovation Therapeutics, Inc., priority 2022, published 2025):
pIC50: −log10 of the molar value.

Test system: T47D (PIK3CA H1047R) cells
Test: pS473 AKT assay with 2.5% FBS, T47D cells
Type: cell-based
Details: Homo sapiens, pSer473 AKT, DMEM with 2.5% FBS, 2 h treatment, read-out: T47D_IC50
In short: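 T47D (PIK3CA H1047R) cells were switched to DMEM with 2.5% FBS and exposed to compounds for 2 h. After paraformaldehyde fixation, pSer473 AKT was detected by in-cell ELISA (rabbit primary, HRP anti-rabbit secondary, chemiluminescence); IC50 values were fitted from the concentration series.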

Structure (SMILES)	pIC50
Cc1cc(C(CO)Nc2ccc(Cl)nc2-c2nnn(C)n2)c2c(c1)c(=O)n1c3c2cnn3CCC1 (stereo not drawn) [Compound 332, 10-(1-((6-chloro-2-(2-methyl-2H-tetrazol-5-yl)pyridin-3-yl)amino)-2-hydroxyethyl)-8-methyl-4,5-dihydro-3H,6H-2,2a5a-triazaaceanthrylen-6-one]	> 6.00
CCn1ncc2c3c(C(CN4CCN(C)CC4)Nc4ccc(Cl)nc4-c4cnn(C)c4)cc(C)cc3c(=O)n(C)c21 (stereo not drawn) [Compound 334, 9-(1-((6-Chloro-2-(1-methyl-1H-pyrazol-4-yl)pyridin-3-yl)amino)-2-(4-methylpiperazin-1-yl)ethyl)-3-ethyl-4,7-dimethyl-3,4-dihydro-5H-pyrazolo[3,4-c]isoquinolin-5-one]	> 6.00
Cc1cc(C(C)Nc2ccccc2C(=O)O)c2c(c1)c(=O)n(C)c1c(-c3ccccn3)ncn21 (stereo not drawn) [Compound I-6, 2-((1-(4,7-Dimethyl-5-oxo-3-(pyridin-2-yl)-4,5-dihydroimidazo[1,5-a]quinazolin-9-yl)ethyl)amino)benzoic acid]	> 6.00
Cc1cc(C(C)Nc2ccccc2C(=O)O)c2c(c1)c(=O)n(C)c1c(C)ncn21 (stereo not drawn) [Compound I-7, 2-((1-(3,4,7-Trimethyl-5-oxo-4,5-dihydroimidazo[1,5-a]quinazolin-9-yl)ethyl)amino)benzoic acid]	> 6.00
Cc1cc(C(C)Nc2ccc(C)nc2C(=O)O)c2c(c1)c(=O)n(C)c1c(C)ncn21 (stereo not drawn) [Compound I-8, 6-Methyl-3-((1-(3,4,7-trimethyl-5-oxo-4,5-dihydroimidazo[1,5-a]quinazolin-9-yl)ethyl)amino)picolinic acid]	> 6.00
CCc1ncn2c3c(C(C)Nc4ccccc4C(=O)O)cc(Cl)cc3c(=O)n(C)c12 (stereo not drawn) [Compound I-9, 2-((1-(7-Chloro-3-ethyl-4-methyl-5-oxo-4,5-dihydroimidazo[1,5-a]quinazolin-9-yl)ethyl)amino)benzoic acid]	> 6.00
Cc1cc(C(C)Nc2ccccc2C(=O)O)c2c(c1)c(=O)n(C)c1nccn21 (stereo not drawn) [Compound I-14, 2-((1-(4,7-Dimethyl-5-oxo-4,5-dihydroimidazo[1,2-a]quinazolin-9-yl)ethyl)amino)benzoic acid]	> 6.00
Cc1cc(C(C)Nc2ccccc2C(=O)O)c2c(c1)c(=O)n(C)c1ncnn21 (stereo not drawn) [Compound I-15, 2-((1-(4,7-Dimethyl-5-oxo-4,5-dihydro-[1,2,4]triazolo[1,5-a]quinazolin-9-yl)ethyl)amino)benzoic acid]	> 6.00
Cc1cc(C(C)Nc2ccccc2C(=O)O)c2c(c1)c(=O)n(C)c1c2cnn1C (stereo not drawn) [Compound I-16, 2-((1-(3,4,7-Trimethyl-5-oxo-4,5-dihydro-3H-pyrazolo[3,4-c]isoquinolin-9-yl)ethyl)amino)benzoic acid]	> 6.00
CCn1ncc2c3c(C(C)Nc4ccc(Cl)nc4C(=O)O)cc(C)cc3c(=O)n(C)c21 (stereo not drawn) [Compound I-19, 6-Chloro-3-((1-(3-ethyl-4,7-dimethyl-5-oxo-4,5-dihydro-3H-pyrazolo[3,4-c]isoquinolin-9-yl)ethyl)amino)picolinic acid]	> 6.00
CCn1c(=O)c2cc(C)cc(C(C)Nc3ccccc3C(=O)O)c2c2cnn(C)c21 (stereo not drawn) [Compound I-21, 2-((1-(4-Ethyl-3,7-dimethyl-5-oxo-4,5-dihydro-3H-pyrazolo[3,4-c]isoquinolin-9-yl)ethyl)amino)benzoic acid]	> 6.00
CCn1c(=O)c2cc(C)cc(C(C)Nc3ccc(Cl)nc3C(=O)O)c2c2cnn(C)c21 (stereo not drawn) [Compound I-22, 6-Chloro-3-((1-(4-ethyl-3,7-dimethyl-5-oxo-4,5-dihydro-3H-pyrazolo[3,4-c]isoquinolin-9-yl)ethyl)amino)picolinic acid]	> 6.00
CCn1ncc2c3c(C(C)Nc4ccc(C)nc4C(=O)O)cc(C)cc3c(=O)n(CC)c21 (stereo not drawn) [Compound I-25, 3-((1-(3,4-Diethyl-7-methyl-5-oxo-4,5-dihydro-3H-pyrazolo[3,4-c]isoquinolin-9-yl)ethyl)amino)-6-methylpicolinic acid]	> 6.00
Cc1cc(C(C)Nc2ccccc2C(=O)O)c2c(c1)c(=O)n(C)c1nn(C3CCOCC3)cc21 (stereo not drawn) [Compound I-27, 2-((1-(4,7-Dimethyl-5-oxo-2-(tetrahydro-2H-pyran-4-yl)-4,5-dihydro-2H-pyrazolo[3,4-c]isoquinolin-9-yl)ethyl)amino)benzoic acid]	> 6.00
Cc1cc(C(C)Nc2ccccc2C(=O)O)c2c(c1)c(=O)n(C)c1nn(CCc3ccccc3)cc21 (stereo not drawn) [Compound I-28, 2-((1-(4,7-Dimethyl-5-oxo-2-phenethyl-4,5-dihydro-2/I-pyrazolo[3,4-c]isoquinolin-9-yl)ethyl)amino)benzoic acid]	> 6.00
Cc1cc(C(C)Nc2ccccc2C(=O)O)c2c(c1)c(=O)n(C)c1nn(-c3cncnc3)cc21 (stereo not drawn) [Compound I-30, 2-((1-(4,7-Dimethyl-5-oxo-2-(pyrimidin-5-yl)-4,5-dihydro-2H-pyrazolo[3,4-c]isoquinolin-9-yl)ethyl)amino)benzoic acid]	> 6.00

Further lines, results first:

pIC50	Structure (SMILES)
> 6.00	Cc1cc(C(CO)Nc2ccc(Cl)nc2-c2ccc3c(c2)CN(C)C3=O)c2c(c1)c(=O)n1c3c2cnn3CCC1 (stereo not drawn) [Compound 333, 10-(1-((6-chloro-2-(2-methyl-1-oxoisoindolin-5-yl)pyridin-3-yl)amino)-2-hydroxyethyl)-8-methyl-4,5-dihydro-3H,6H-2,2a,5a-triazaaceanthrylen-6-one]
> 6.00	Cc1cc(C(C)Nc2ccccc2C(=O)O)c2c(c1)c(=O)n(C)c1cncn21 (stereo not drawn) [Compound I-4, 2-((1-(4,7-Dimethyl-5-oxo-4,5-dihydroimidazo[1,5-a]quinazolin-9-yl)ethyl)amino)benzoic acid]
> 6.00	CCc1ncn2c3c(C(C)Nc4ccccc4C(=O)O)cc(C)cc3c(=O)n(C)c12 (stereo not drawn) [Compound I-5, 2-((1-(3-Ethyl-4,7-dimethyl-5-oxo-4,5-dihydroimidazo[1,5-a]quinazolin-9-yl)ethyl)amino)benzoic acid]
> 6.00	CC(Nc1ccccc1C(=O)O)c1cc(Cl)cc2c(=O)n(C)c3cncn3c12 (stereo not drawn) [Compound I-10, 2-((1-(7-Chloro-4-methyl-5-oxo-4,5-dihydroimidazo[1,5-a]quinazolin-9-yl)ethyl)amino)benzoic acid]
> 6.00	Cc1ncn2c3c(C(C)Nc4ccccc4C(=O)O)cc(Cl)cc3c(=O)n(C)c12 (stereo not drawn) [Compound I-11, 2-((1-(7-Chloro-3,4-dimethyl-5-oxo-4,5-dihydroimidazo[1,5-a]quinazolin-9-yl)ethyl)amino)benzoic acid]
> 6.00	CCn1c(=O)c2cc(Cl)cc(C(C)Nc3ccccc3C(=O)O)c2n2cncc12 (stereo not drawn) [Compound I-12, 2-((1-(7-Chloro-4-ethyl-5-oxo-4,5-dihydroimidazo[1,5-a]quinazolin-9-yl)ethyl)amino)benzoic acid]
> 6.00	CCc1ncn2c3c(C(C)Nc4ccccc4C(=O)O)cc(Cl)cc3c(=O)n(CC)c12 (stereo not drawn) [Compound I-13, 2-((1-(7-Chloro-3,4-diethyl-5-oxo-4,5-dihydroimidazo[1,5-a]quinazolin-9-yl)ethyl)amino)benzoic acid]
> 6.00	Cc1cc(C(C)Nc2ccc(Cl)nc2C(=O)O)c2c(c1)c(=O)n(C)c1c2cnn1C (stereo not drawn) [Compound I-17, 6-Chloro-3-((1-(3,4,7-trimethyl-5-oxo-4,5-dihydro-3H-pyrazolo[3,4-c]isoquinolin-9-yl)ethyl)amino)picolinic acid]
> 6.00	CCn1ncc2c3c(C(C)Nc4ccccc4C(=O)O)cc(C)cc3c(=O)n(C)c21 (stereo not drawn) [Compound I-18, 2-((1-(3-Ethyl-4,7-dimethyl-5-oxo-4,5-dihydro-3H-pyrazolo[3,4-c]isoquinolin-9-yl)ethyl)amino)benzoic acid]
> 6.00	CCn1ncc2c3c(C(C)Nc4ccc(C)nc4C(=O)O)cc(C)cc3c(=O)n(C)c21 (stereo not drawn) [Compound I-20, 3-((1-(3-Ethyl-4,7-dimethyl-5-oxo-4,5-dihydro-3H-pyrazolo[3,4-c]isoquinolin-9-yl)ethyl)amino)-6-methylpicolinic acid]
> 6.00	CCn1ncc2c3c(C(C)Nc4ccccc4C(=O)O)cc(C)cc3c(=O)n(CC)c21 (stereo not drawn) [Compound I-23, 2-((1-(3,4-Diethyl-7-methyl-5-oxo-4,5-dihydro-3H-pyrazolo[3,4-c]isoquinolin-9-yl)ethyl)amino)benzoic acid]
> 6.00	CCn1ncc2c3c(C(C)Nc4ccc(F)cc4C(=O)O)cc(C)cc3c(=O)n(CC)c21 (stereo not drawn) [Compound I-24, 2-((1-(3,4-Diethyl-7-methyl-5-oxo-4,5-dihydro-3H-pyrazolo[3,4-c]isoquinolin-9-yl)ethyl)amino)-5-fluorobenzoic acid]
> 6.00	CCCn1cc2c3c(C(C)Nc4ccccc4C(=O)O)cc(C)cc3c(=O)n(C)c2n1 (stereo not drawn) [Compound I-26, 2-((1-(4,7-Dimethyl-5-oxo-2-propyl-4,5-dihydro-2H-pyrazolo[3,4-c]isoquinolin-9-yl)ethyl)amino)benzoic acid]
> 6.00	Cc1cc(C(C)Nc2ccccc2C(=O)O)c2c(c1)c(=O)n(C)c1nn(-c3ccnc(F)c3)cc21 (stereo not drawn) [Compound I-29, 2-((1-(2-(2-Fluoropyridin-4-yl)-4,7-dimethyl-5-oxo-4,5-dihydro-2H-pyrazolo[3,4-c]isoquinolin-9-yl)ethyl)amino)benzoic acid]
> 6.00	Cc1cc(C(C)Nc2ccc(Cl)nc2C(=O)O)c2c(c1)c(=O)n(C)c1nn(-c3ccccc3C)cc21 (stereo not drawn) [Compound I-31, 6-Chloro-3-((1-(4,7-dimethyl-5-oxo-2-(o-tolyl)-4,5-dihydro-2H-pyrazolo[3,4-c]isoquinolin-9-yl)ethyl)amino)picolinic acid]
> 6.00	COc1ccc2c3c(C(C)Nc4ccccc4C(=O)O)cc(C)cc3c(=O)n(C)c2n1 (stereo not drawn) [Compound I-32, 2-[1-(3-Methoxy-5,8-dimethyl-6-oxo-benzo[c][1,8]naphthyridin-10-yl)ethylamino]benzoic acid]
> 6.00	Cc1cc(C(C)Nc2ccccc2C(=O)O)c2c(c1)c(=O)n(C)c1nc(N(C)C)ccc21 (stereo not drawn) [Compound I-33, 2-[1-[3-(Dimethylamino)-5,8-dimethyl-6-oxo-benzo[c][1,8]naphthyridin-10-yl]ethylamino]benzoic acid]
